Where two headings read alike, the source gives them in different places.
Experiments:
[1] = system: NSCLC A549 cells; design: method as in PMID 31338398; settings: cited from earlier work; for IC50: 24 h, MTS/PMS, already obtained by the authors; for Cytotoxicity in A549 cells at the highest concentration: 100 μM
[2] = MTS/PMS cell viability, MRC5; assay type: cell-based; settings: human, MRC5 normal lung fibroblast cells
Method: (§1) The 50% inhibitory concentration (IC50) of some of these triterpenes in A549 NSCLC cells were previously determined by us. A similar procedure was performed to determine the IC50 of the triterpenes in a normal lung fibroblast cell line (MRC5). In brief, the A549 and MRC5 cells were seeded into 96-well plates at a density of 1 × 10^5 cells/mL in supplemented DMEM medium. The cells were treated with specific concentrations (A549: 5, 10, 25, 50, 75, 100, 125,150, 175, 200 μM; MRC5: 5, 10, 25, 50, 75, 100 μM) of the triterpenes and incubated for 24 h. Then, 10 uL of the MTS reagent from the CellTiter 96® Aqueous Non-Radioactive Cell Proliferation Assay (Promega G5421) was added to each well. Then, we incubated the plates at 37 °C and in a 5% CO2 atmosphere for 1 h. After incubation, the absorbance was measured at 492 nm (n = 8) in a microplate reader spectrophotometer (Thermoscientific Multiskan FC). The cell viability was calculated as follows:% Viability = (sample absorbance − sample media absorbance)/(untreated cells’ absorbance − untreated cells’ media absorbance) × 100
The cell viability data were presented by plotting the values with an average of eight measurements for each treatment (mean ± SD) in at least three independent experiments. The IC50 values were calculated with the GraphPad Prism 9 software (Prism 9; GraphPad by Dotmatics, San Diego, CA, USA) using the dose–response curve. The data were normalized by the non-linear fit of the log (drug inhibition) vs. normalized response variable slope to obtain the best fit IC50 and R-squared values.

[3] = system: DNA damage machinery in A549 cells; experiment: DNA damage assay (anti-pH2AX / anti-pATM, flow cytometry); assay type: cell-based, human; settings: A549, IC50, 24 h, vs untreated cells
Method: (§2) We used flow cytometry to analyze several cellular mechanistic pathways in A549 cells after incubation with the triterpenes. In general, the cells were seeded in a 6-well plate at a density of 1 × 10^6 cells/mL and incubated for 24 h in supplemented DMEM. After 24 h, the A549 cells were treated with the triterpenes, following each manufacturer’s protocol. All of the following experiments were performed in a Muse® Cell Analyzer (EMD Millipore Corporation, Temecula, CA). The instrument was calibrated before each assay using the Muse® System Check Kit (Luminex MCH100101, Luminex Corporation). Each assay was run at least in two independent experiments. For each experiment, all samples were analyzed in triplicate in the instrument and the capillary line was washed after each sample run to avoid artifacts. In addition, to address the issue of cell doublets, we used the Muse® Cell Dispersal Reagent (Luminex Corporation) in all experiments. The concentration of the triterpenes in each assay was selected depending on the cellular concentration necessary to generate the gain signal in the instrument. This means that we attempted to select concentrations avoiding excessive cytotoxicity to accurately determine the respective signal from each assay.
Then, the A549 cells were scraped and centrifuged. The pellet was suspended in the assay buffer from the Luminex MCH200107 kit (Luminex Corporation). […]

[4] = system: NSCLC A549 cells; experiment: MTS/PMS cell viability, A549; assay type: cell-based, human; on TI > 1: key: '✔' means induction; '-' means non-induction of any of the tested processes
Method: as §1, with “A” for “The 50% inhibitory concentration (IC50) of some of these triterpenes in A549 NSCLC cells were previously determined by us. A”, “The cells were treated with specific concentrations (A549: 5, 10, 25, 50, 75, 100, 125,150, 175, 200 μM; MRC5: 5, 10, 25, 50, 75, 100 μM) of the triterpenes and incubated for 24 h.” left out
The cell viability data were presented by plotting the values with an average of eight measurements for each treatment (mean ± SD) in at least three independent experiments. The IC50 values were calculated with the GraphPad Prism 9 software (Prism 9; GraphPad by Dotmatics, San Diego, CA, USA) using the dose–response curve.

[5] = system: MAPK/PI3K; experiment: MAPK/PI3K protein expression (dual pathway activation kit, flow cytometry); assay type: cell-based, human; settings: for MAPK/PI3K expression (in words): A549, IC25, 24 h, vs untreated cells; for MAPK/PI3K inhibition: summary, NSCLC A549 cells; on MAPK/PI3K inhibition: key: '✔' means induction; '-' means non-induction of any of the tested processes
Method: as §2
The Muse® P13K/MAPK Dual Pathway Activation Kit (Luminex MCH200108, Luminex Corporation) was used to determine MAPK/PI3K expression. After the incubation treatment with the triterpenes (IC25) for 24 h, the A549 cells were scraped, centrifuged, and washed once with 1× PBS. Next, the fixation buffer was incubated for 10 min and then the permeabilization buffer for another 10 min. Both incubations were performed on ice. Later, the antibody cocktail containing anti-phospho-Akt and anti-phospho-ERK1/2 was incubated for 30 min. Afterward, the cell pellet was washed and suspended in fresh assay buffer for measurement.

[6] = system: LC3-II; experiment: Autophagy induction assay (LC3 antibody, flow cytometry); assay type: cell-based, human; settings: for Autophagic response (in words): A549, IC25, 24 h, vs controls (untreated ratio 0.8, starving ratio 1)
Method: as §2
The Muse® Autophagy LC3 Antibody-Based Kit (Luminex MCH200109, Luminex Corporation) was used to determine autophagy activation by monitoring lipidated LC3-II. After the A549 cells were treated with the triterpenes (IC25) for 24 h, autophagy reagent A was added for 4 h to prevent the lysosomal degradation of LC3-II. Then, the cells were detached and centrifuged. The pellet was suspended and incubated for 30 min in the autophagy reagent B containing anti-LC3-II mouse monoclonal antibody. Finally, the cell pellet was washed and suspended in fresh assay buffer for measurement. The autophagy response was calculated using the following formula:
Autophagy ratio = mean autophagy value of treated or untreated cells/mean autophagy value of starving cells.
The starving cells were labeled ‘No supp’ as non-supplemented cells. These served as the positive signal for autophagy and were designated a ratio of 1 since they were compared to themselves. A ratio ≥1 indicates the activation of the autophagic response.

[7] = system: A549 cells; experiment: Total ROS production assay (DCF); assay type: cell-based, human; settings: A549, IC25 (CisPt 25 μM), 24 h
Method: The production of total ROS was determined using the 2′,7′-dichlorodihydrofluorescein diacetate (DCF) fluorescent dye. A549 cells were seeded in a concentration of 1 × 10^5 cells/mL into black 96-well plates with a clear bottom. After 24 h, the cells were incubated with the triterpenes (IC25) and controls for 24 h. Then, 50 μL of DCF (10 μM) was added to each well and they were incubated for 1 h at room temperature. Then, the fluorescence of each well was measured (Ex/Em = 485/530 nm) in the Tecan® M200 plate reader.
This experiment was performed in triplicate. All data were expressed by plotting the values as an average of three measurements for each treatment condition as the mean ± SD and analyzed with the software GraphPad Prism 9. Statistical analysis was performed using one-way analysis of variance (ANOVA) to compare the mean value of each treated type of cells versus the control (untreated cells). The statistical significance defined by the software for p values was **** < 0.0001, *** from 0.001 to 0.0001, ** from 0.001 to 0.01, * from 0.01 to 0.05, and non-significant (ns) ≥ 0.05.

[8] = system: PDL1 gene; experiment: RT-qPCR gene expression of PDL1; assay type: cell-based, human; settings: A549, IC25 (CisPt 25 μM), 24 h
Method: (§3) A549 cells were seeded into 6-well plates at a density of 1 × 10^6 cells/mL in supplemented DMEM. The cells were incubated with the triterpenes (IC25) for 24 h. Total RNA was extracted from the cells using the TRIzol reagent (Invitrogen Corporation, Carlsbad, CA, USA) according to the manufacturer’s instructions. The purity and concentration of RNA were assessed using a NanoDrop spectrophotometer (Thermo Fisher Scientific). cDNA was synthesized using the High-Capacity cDNA Reverse Transcription Kit (Applied Biosystems) according to the manufacturer’s instructions.
(§4) RT-qPCR was performed on a StepOnePlus® Real-Time PCR System (Thermo Fisher Scientific) using TaqMan Gene Expression Assays (Applied Biosystems) for PDL1 (CD274; Assay ID: Hs01125297_m1), ribonucleotide reductase (RR) M1 (Assay ID: Hs01040697_m1), and STAT3 (Assay ID: Hs01047586_g1). Each reaction consisted of 10 ng of cDNA, TaqMan Gene Expression Master Mix (Applied Biosystems), and TaqMan probes. The PCR cycling conditions were as follows: 95 °C for 10 min, followed by 40 cycles of 95 °C for 15 s and 60 °C for 60 s. The relative gene expression levels were calculated using the ΔΔCt method. GAPDH (Assay ID: Hs02758991_g1) was used as the endogenous control for normalization.
(§5) All RT-qPCR experiments were performed at least in triplicate. All data were expressed by plotting values with an average of four measurements for each treatment condition as the mean ± SD and analyzed with the software GraphPad Prism 9. Statistical analysis was performed using one-way analysis of variance (ANOVA) to compare the mean value of each treated type of cells versus the control (untreated cells). The statistical significance defined by the software for p values was **** < 0.0001, *** from 0.001 to 0.0001, ** from 0.001 to 0.01, * from 0.01 to 0.05, and non-significant (ns) ≥ 0.05.

[9] = system: STAT3 gene; experiment: RT-qPCR gene expression of STAT3; assay type: cell-based, human
Method: as §3, §4, §5

[10] = system: RRM1 gene; experiment: RT-qPCR gene expression of ribonucleotide reductase M1; assay type: cell-based, human
Method: as §3
as §4, with “GAPDH (Assay ID: Hs02758991_g1) was used as the endogenous control for normalization.” left out
All RT-qPCR experiments were performed at least in triplicate. All data were expressed by plotting values with an average of four measurements for each treatment condition as the mean ± SD and analyzed with the software GraphPad Prism 9. […]

[11] = system: A549 cells; experiment: Mitochondrial ROS production assay (DHE, flow cytometry); assay type: cell-based, human; settings: A549, IC25, 24 h; group average
Method: as §2
The production of reactive oxygen species (ROS) by mitochondria was determined using the Oxidative Stress Kit (Luminex MCH100111, Luminex Corporation). After the A549 cells were treated with the triterpenes (IC25) for 24 h, the cells were scraped and centrifuged. For ROS, the cell pellet was incubated with dihydroethidium (DHE) dye for 1 h at 37 °C.

| Structure (SMILES) | IC50 [1] [µM] | IC50 at 24 h [2] [µM] | MAPK/PI3K expression (in words) [5] | MAPK/PI3K inhibition [5] | Autophagic response (in words) [6] | Cytotoxicity in A549 cells at the highest concentration [1] | other results |
| --- | --- | --- | --- | --- | --- | --- | --- |
| C[C@H]1[C@H](C)CC[C@]2(C(=O)O)CC[C@]3(C)C(=CC[C@@H]4[C@@]5(C)C[C@@H](O)[C@H](O)[C@@](C)(CO)[C@@H]5CC[C@]43C)[C@H]12 [AsA, asiatic acid] | 59 ± 6 | 38 ± 2 | did not affect the expression of MAPK/PI3K | - | induced an autophagic response similar to that of CisPt |  | Activation of the DNA damage machinery (in words) [3]: caused the activation of the DNA damage machinery; TI ([4]; TI = MRC5 IC50/A549 IC50, >1 means higher selectivity): 0.64; TI > 1 ([4]; summary, MRC5 vs A549): -; Autophagy inhibition ([6]; summary, NSCLC A549 cells): - |
| N.N.[Cl][Pt][Cl] [CisPt, cis-diamminedichloroplatinum (II), reference compound] |  |  |  |  |  |  | Total ROS production (in words) [7]: not statistically significant; PDL1 gene expression (in words) [8]: clearly upregulated PDL1 |
| CC1(C)CC[C@]2(C(=O)O)CC[C@]3(C)C(=CC[C@@H]4[C@@]5(C)CC[C@H](O)C(C)(C)[C@@H]5CC[C@]43C)[C@@H]2C1 [OleA, oleanolic acid] | 43 ± 5 | 86 ± 2 | did not affect the expression of MAPK/PI3K | - | inhibit the LC3-II activity |  | STAT3 gene expression (in words) ([9]; A549, IC25, 24 h): did not inhibit; STAT3 downregulation ([9]; summary, NSCLC A549 cells): -; RRM1 gene expression (in words) ([10]; A549, IC25, 24 h, vs untreated cells): did not downregulate RR; RRM1 downregulation ([10]; summary, NSCLC A549 cells): -; TI [4]: 2; Amount of mROS, on average of the three named triterpenes, compared to the untreated cells [11]: 26.2% |
| CC(C)CCC[C@@H](C)[C@H]1CC[C@H]2[C@@H]3CC=C4C[C@@H](O)CC[C@]4(C)[C@H]3CC[C@]12C [cholesterol, reference compound] |  |  |  |  |  | did not kill A549 cells |  |
| CC[C@H](CC[C@@H](C)[C@H]1CC[C@H]2[C@@H]3CC=C4C[C@@H](O)CC[C@]4(C)[C@H]3CC[C@]12C)C(C)C [β-sitosterol, reference compound] |  |  |  |  |  | did not kill A549 cells |  |

Reference: article PMC11206507, “Unraveling the Impact of Six Pentacyclic Triterpenes Regulating Metabolic Pathways on Lung Carcinoma Cells” (Pharmaceuticals, 2024)
